Measurements as given in US20220267352A1, “RAPAMYCIN ANALOGS AND USES THEREOF” (Anakuria Therapeutics, Inc., priority 2021, published 2022).
Each block holds one compound with its values, some of them ahead of it.

Legend:
Assay type in all cases: cell-based
[1] = system: p-p70 S6 Kinase (Thr389) in MCF-7 cells; experiment: AlphaLISA Ultra pS6K1 assay; conditions: Homo sapiens, 1.5 h; MCF7 cells, 90 min
In short: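 Phospho-S6K1 (Thr389) quantified by AlphaLISA Ultra read-out (2 h acceptor, then 2 h donor beads) in lysates of MCF-7 cells. Cells were plated 20–24 h before, refed 2 h, exposed to compounds for 90 min at 0.5% final DMSO, and lysates stored at −80 °C.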

mTORC1 over mTORC2 = mTORC1 over mTORC2 selectivity by comparing pS6K1 and pAKT IC50; conditions: by comparing pS6K1 and pAKT IC50, 90 min
Procedure: Assay Protocol: • 1. Seed MCF-7 cells in Corning 3701 plate and incubate for 20˜24 hour. 12,000˜16,000 cells will be seeded in 36 μL medium per well. • 2. Change the culture medium with fresh medium and incubate for another 2 hours. • 3. Add 12 μL (4×) compounds into the cell plate by HAMILTON. Final DMSO concentration is 0.5%. Incubate for 90 minutes. • 4. Aspirate 38 μL by HAMILTON, 10 μL rest per well. • 5. Add 10 μL 2× lysis buffer using HAMILTON; total volume in wells is 20 μL. Allow cells to shake for 30 min. Cover plate by plastic foil and store plate at −80° C. up to analysis. • 6. Thaw cell lysate at RT and transfer 10 μL lysate to assay plate (Optiplate-384). • 7. Add 5 μL acceptor beads into assay plate and incubation for 2 hours • 8. Add 5 μL donor beads and incubation for 2 hours • 9. Count the plate by EnSpire Multimode Plate Reader […]
Compounds that are not selective by comparing pS6K1 and pAKT IC50 by kinase assays are indicated by “NO” in the “mTORC1 selective @ 90 min” column of Table 4. […] Compounds that are not selective at the 24 hrs mark are indicated by “NO” in the “mTORC1 selective @ 24 hrs” column of Table 4. “N/A” stands for “not assayed” and “N/C” stands for “not calculated”.

[2] = system: p-Akt 1/2/3 (Ser473) in MCF-7 cells; experiment: AlphaLISA Ultra pAKT assay; conditions: Homo sapiens, 1.5 h; MCF7 cells, 90 min
In short: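 MCF-7 cells (16,000˜20,000 per well in 36 μL medium) were seeded in Corning 3701 plates for 20˜24 hour, refreshed with new medium for 90 minutes, then given 12 μL of 4× compound (0.5% final DMSO). Cells were lysed with 2× lysis buffer, and lysate was analyzed by AlphaLISA Ultra pAKT using acceptor and donor beads, read on an EnSpire reader.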

SMILES: CO[C@@H]1/C(C)=C/[C@@H](C)C(=O)C[C@@H]([C@H](C)C[C@@H]2CC[C@@H](OP(C)(C)=O)[C@H](OC)C2)OC(=O)[C@@H]2CCCCN2C(=O)C(=O)[C@]2(O)O[C@@H](CC[C@H]2C)C[C@H](OCC2COCCO2)/C(C)=C/C=C/C=C/[C@@H](C)C[C@@H](C)C(=O)[C@@H]1OC (stereo partly drawn) [I-25, (27E,29E,31E,32E,35R,36S,37R,38R,40S,42S,44S,45S,47R,48R,57R)-45-[(1R)-2-[(1S,3R,4R)-4-dimethylphosphoryloxy-3-methoxy-cyclohexyl]-1-methyl-ethyl]-44-(1,4-dioxan-2-ylmethoxy)-57-hydroxy-47,48-dimethoxy-35,36,37,38,49,50-hexamethyl-68,69-dioxa-58-azatricyclohexatriaconta-27,29,31(49),32(50)-tetraene-51,52,53,54,55-pentone]
- IC50 [1]: 0.01 to 0.1 µM
- mTORC1 selective @ 90 min (mTORC1 over mTORC2): Yes
- IC50 [2]: ≥ 1 µM

SMILES: COCCOCCO[C@@H]1C[C@@H]2CC[C@@H](C)[C@@](O)(O2)C(=O)C(=O)N2CCCC[C@H]2C(=O)O[C@H]([C@H](C)C[C@@H]2CC[C@@H](OP(C)(C)=O)[C@H](OC)C2)CC(=O)[C@H](C)/C=C(\C)[C@@H](OC)[C@@H](OC)C(=O)[C@H](C)C[C@H](C)/C=C/C=C/C=C/1C [I-33, (25E,27E,29E,30E,36R,37S,38R,39R,41S,43S,45R,46S,47R,48R,57R)-46-[(1R)-2-[(1S,3R,4R)-4-dimethylphosphoryloxy-3-methoxy-cyclohexyl]-1-methyl-ethyl]-57-hydroxy-47,48-dimethoxy-45-[2-(2-methoxyethoxy)ethoxy]-36,37,38,39,49,50-hexamethyl-66,67-dioxa-58-azatricyclohexatriaconta-25,27,29(49),30(50)-tetraene-51,52,53,54,55-pentone]
- IC50 [1]: 0.001 to 0.01 µM
- mTORC1 selective @ 90 min (mTORC1 over mTORC2): Yes
- IC50 [2]: ≥ 1 µM

SMILES: CO[C@@H]1/C(C)=C/[C@@H](C)C(=O)C[C@@H]([C@H](C)C[C@@H]2CC[C@@H](OC)[C@H](OC)C2)OC(=O)[C@@H]2CCCCN2C(=O)C(=O)[C@]2(O)O[C@@H](CC[C@H]2C)C[C@@H](OCC2COCCO2)/C(C)=C/C=C/C=C/[C@@H](C)C[C@@H](C)C(=O)[C@@H]1OC (stereo partly drawn) [I-39, (26E,28E,30E,31E,34R,35S,36R,37R,39S,41S,43R,44S,46R,47R,56R)-44-[(1R)-2-[(1S,3R,4R)-3,4-dimethoxycyclohexyl]-1-methyl-ethyl]-43-(1,4-dioxan-2-ylmethoxy)-56-hydroxy-46,47-dimethoxy-34,35,36,37,48,49-hexamethyl-66,67-dioxa-57-azatricyclohexatriaconta-26,28,30(48),31(49)-tetraene-50,51,52,53,54-pentone]
- IC50 [1]: 0.1 to 1 µM
- mTORC1 selective @ 90 min (mTORC1 over mTORC2): Yes
- IC50 [2]: ≥ 1 µM

SMILES: COCCS(=O)(=O)CCO[C@@H]1C[C@@H]2CC[C@@H](C)[C@@](O)(O2)C(=O)C(=O)N2CCCC[C@H]2C(=O)O[C@H]([C@H](C)C[C@@H]2CC[C@@H](OC)[C@H](OC)C2)CC(=O)[C@H](C)/C=C(\C)[C@@H](OC)[C@@H](OC)C(=O)[C@H](C)C[C@H](C)/C=C/C=C/C=C/1C [I-42, (24E,26E,28E,29E,35R,36S,37R,38R,40S,42S,44R,45S,46R,47R,56R)-45-[(1R)-2-[(1S,3R,4R)-3,4-dimethoxycyclohexyl]-1-methyl-ethyl]-56-hydroxy-46,47-dimethoxy-44-[2-(2-methoxyethylsulfonyl)ethoxy]-35,36,37,38,48,49-hexamethyl-66,67-dioxa-57-azatricyclohexatriaconta-24,26,28(48),29(49)-tetraene-50,51,52,53,54-pentone]
- IC50 [1]: 0.01 to 0.1 µM
- mTORC1 selective @ 90 min (mTORC1 over mTORC2): Yes
- IC50 [2]: ≥ 1 µM

The next lines start with results.

- IC50 [1]: 0.1 to 1 µM
- IC50 [2]: ≥ 1 µM
SMILES: CO[C@@H]1/C(C)=C/[C@@H](C)C(=O)C[C@@H]([C@H](C)C[C@@H]2CC[C@@H](OCCO)[C@H](OC)C2)OC(=O)[C@@H]2CCCCN2C(=O)C(=O)[C@]2(O)O[C@@H](CC[C@H]2C)CC(OCCOCCN)/C(C)=C/C=C/C=C/[C@@H](C)C[C@@H](C)C(=O)[C@@H]1OC (stereo partly drawn) [I-23, (22E,24E,26E,27E,35R,36S,37R,38R,40S,42S,45S,46R,47R,56R)-44-[2-(2-aminoethoxy)ethoxy]-56-hydroxy-45-[(1R)-2-[(1S,3R,4R)-4-(2-hydroxyethoxy)-3-methoxy-cyclohexyl]-1-methyl-ethyl]-46,47-dimethoxy-35,36,37,38,48,49-hexamethyl-66,67-dioxa-58-azatricyclohexatriaconta-22,24,26(48),27(49)-tetraene-50,51,52,53,54-pentone]
- mTORC1 selective @ 90 min (mTORC1 over mTORC2): Yes

- IC50 [1]: 0.01 to 0.1 µM
- IC50 [2]: ≥ 1 µM
SMILES: COCCOCCO[C@@H]1C[C@@H]2CC[C@@H](C)[C@@](O)(O2)C(=O)C(=O)N2CCCC[C@H]2C(=O)O[C@H]([C@H](C)C[C@@H]2CC[C@@H](OC)[C@H](OC)C2)CC(=O)[C@H](C)/C=C(\C)[C@@H](OC)[C@@H](OC)C(=O)[C@H](C)C[C@H](C)/C=C/C=C/C=C/1C [I-30, (24E,26E,28E,29E,35R,36S,37R,38R,40S,42S,44R,45S,46R,47R,56R)-45-[(1R)-2-[(1S,3R,4R)-3,4-dimethoxycyclohexyl]-1-methyl-ethyl]-56-hydroxy-46,47-dimethoxy-44-[2-(2-methoxyethoxy)ethoxy]-35,36,37,38,48,49-hexamethyl-64,65-dioxa-57-azatricyclohexatriaconta-24,26,28(48),29(49)-tetraene-50,51,52,53,54-pentone]
- mTORC1 selective @ 90 min (mTORC1 over mTORC2): Yes

- IC50 [1]: 0.001 to 0.01 µM
- IC50 [2]: ≥ 1 µM
SMILES: COCCOCCO[C@@H]1C[C@@H]2CC[C@@H](C)[C@@](O)(O2)C(=O)C(=O)N2CCCC[C@H]2C(=O)O[C@H]([C@H](C)C[C@@H]2CC[C@@H](OCCO)[C@H](OC)C2)CC(=O)[C@H](C)/C=C(\C)[C@@H](OC)[C@@H](OC)C(=O)[C@H](C)C[C@H](C)/C=C/C=C/C=C/1C [I-36, (23E,25E,27E,28E,36R,37S,38R,39R,41S,43S,45R,46S,47R,48R,57R)-57-hydroxy-46-[(1R)-2-[(1S,3R,4R)-4-(2-hydroxyethoxy)-3-methoxy-cyclohexyl]-1-methyl-ethyl]-47,48-dimethoxy-45-[2-(2-methoxyethoxy)ethoxy]-36,37,38,39,49,50-hexamethyl-66,67-dioxa-58-azatricyclohexatriaconta-23,25,27(49),28(50)-tetraene-51,52,53,54,55-pentone]
- mTORC1 selective @ 90 min (mTORC1 over mTORC2): Yes

- IC50 [1]: 0.001 to 0.01 µM
- IC50 [2]: ≥ 1 µM
SMILES: CO[C@@H]1/C(C)=C/[C@@H](C)C(=O)C[C@@H]([C@H](C)C[C@@H]2CC[C@@H](OCCCO)[C@H](OC)C2)OC(=O)[C@@H]2CCCCN2C(=O)C(=O)[C@]2(O)O[C@@H](CC[C@H]2C)C[C@@H](OCCOC2COC2)/C(C)=C/C=C/C=C/[C@@H](C)C[C@@H](C)C(=O)[C@@H]1OC [I-44, (23E,25E,27E,28E,35R,36S,37R,38R,40S,42S,44R,45S,47R,48R,57R)-47,57-dihydroxy-45-[(1R)-2-[(1S,3R,4R)-4-(3-hydroxypropoxy)-3-methoxy-cyclohexyl]-1-methyl-ethyl]-48-methoxy-35,36,37,38,49,50-hexamethyl-44-[2-(oxetan-3-yloxy)ethoxy]-68,69-dioxa-58-azatricyclohexatriaconta-23,25,27(49),28(50)-tetraene-51,52,53,54,55-pentone]
- mTORC1 selective @ 90 min (mTORC1 over mTORC2): Yes
